Results as given in patent US6761904B2 (Nycomed Austria GmbH, priority 2000, dated 2004).

What was measured:
[1] = Plasma pharmacokinetics of midodrine and desglymidodrine after oral intake / colon absorption (general findings and presumptions); format: in vivo, human; details: for Cmax: 7.5 mg, presumption made in estimating the target profile, obtained after tablet administration
[2] = after oral administration of a single dose; cited from earlier work

SMILES	tmax of desglymidodrine after colon absorption ([1]; after application to the colon)	Cmax ([1]; human, in vivo) [ng/mL]	Tmax ([1]; human, in vivo, po) [h]	Cmax ([1]; human, plasma, oral) [ng/mL]	tmax after oral intake of midodrine ([1]; midodrine itself in plasma)	persistence of the pressor effect [2] [h]	time until the pressor effect is manifest [2] [min]
COc1ccc(OC)c(C(O)CN)c1 (stereo not drawn) [desglymidodrine, alpha-(aminomethyl)-2,5-dimethoxy-benzenemethanol]	approximately 3 hours	~3.75	1 to 2				
COc1ccc(OC)c(C(O)CNC(=O)CN)c1 (stereo not shown) [midodrine, 2-amino-N-[2-(2,5-dimethoxyphenyl)-2-hydroxyethyl]-acetamide]				~11	about 30 min	3 to 6	20 to 90
